Data taken from ChEMBL document CHEMBL1136317, “A general synthesis of 1-aryl carbamoyl-2-alkyl-4-aryl substituted semicarbazides as nonbasic factor Xa inhibitors” (Bioorg Med Chem Lett, 2003).

Target: Coagulation factor X (Homo sapiens, UniProt P00742)
Test: Inhibitory activity against human Coagulation factor X in a purified enzyme system

Sequence of Coagulation factor X (P00742 41-179 limits assumed): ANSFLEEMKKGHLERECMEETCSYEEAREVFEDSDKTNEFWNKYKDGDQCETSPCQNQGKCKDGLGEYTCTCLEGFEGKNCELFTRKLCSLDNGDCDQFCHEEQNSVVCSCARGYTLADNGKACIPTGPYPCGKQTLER
Sequence of Coagulation factor X (P00742 235-488 limits assumed): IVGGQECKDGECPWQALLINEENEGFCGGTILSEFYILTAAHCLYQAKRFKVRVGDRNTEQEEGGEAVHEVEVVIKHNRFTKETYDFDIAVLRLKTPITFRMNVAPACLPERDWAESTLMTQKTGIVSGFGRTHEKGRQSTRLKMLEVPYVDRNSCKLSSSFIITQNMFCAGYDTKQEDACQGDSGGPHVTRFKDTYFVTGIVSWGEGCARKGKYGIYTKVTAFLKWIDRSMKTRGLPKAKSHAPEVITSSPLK

Row | IC50 | SMILES
1 | 17 nM | CCC(NC(=O)Nc1ccc(Cl)cc1)C(=O)Nc1ccc(N2CCOCC2=O)cc1 (single isomer, unassigned)
2 | 78 nM | CC(NC(=O)Nc1ccc(Cl)cc1)C(=O)Nc1ccc(N2CCOCC2=O)cc1 (single isomer, unassigned)
